Assay [1] addresses Protein cereblon/Cyclin-dependent kinase 9 (Homo sapiens, UniProt P50750+Q96SW2). The assay can be described thus: Protac activity at CRBN/CDK9 in human HCT116 cells assessed as induction of CDK9 protein degradation at 20 uM after 6 hrs by Western blot analysis relative to control. In kind it is cell-based.
The target of assay [2] is T1, BRD4/E3 ubiquitin-protein ligase Mdm2 (Homo sapiens, UniProt Q00987+O60885). As to the kind of experiment: Protac activity at BRD4/MDM2 in human HCT116 cells assessed as induction of BRD4 degradation at 100 nM after 24 hrs by immunoblotting analysis relative to control. In kind it is cell-based. (Immunoblotting shows a protein as a band on a membrane.)
Assay [3] has as its target T1, BRD4/E3 ubiquitin-protein ligase Mdm2. The assay can be described thus: Protac activity at BRD4/MDM2 in human HCT116 cells assessed as induction of BRD4 degradation at after 24 hrs by immunoblotting analysis. In kind it is cell-based.
Assay [4] has as its target T2, von Hippel-Lindau disease tumor suppressor/Receptor-type tyrosine-protein kinase FLT3 (Homo sapiens, UniProt P36888+P40337). The assay can be described thus: Protac activity at VHL/FLT3 in human MOLM14 cells assessed as induction of FLT3 protein degradation at 50 nM measured after 4 hrs by immunoblot analysis relative to control. In kind it is cell-based.
Target sequence in this assay (P36888 27-993 limits assumed): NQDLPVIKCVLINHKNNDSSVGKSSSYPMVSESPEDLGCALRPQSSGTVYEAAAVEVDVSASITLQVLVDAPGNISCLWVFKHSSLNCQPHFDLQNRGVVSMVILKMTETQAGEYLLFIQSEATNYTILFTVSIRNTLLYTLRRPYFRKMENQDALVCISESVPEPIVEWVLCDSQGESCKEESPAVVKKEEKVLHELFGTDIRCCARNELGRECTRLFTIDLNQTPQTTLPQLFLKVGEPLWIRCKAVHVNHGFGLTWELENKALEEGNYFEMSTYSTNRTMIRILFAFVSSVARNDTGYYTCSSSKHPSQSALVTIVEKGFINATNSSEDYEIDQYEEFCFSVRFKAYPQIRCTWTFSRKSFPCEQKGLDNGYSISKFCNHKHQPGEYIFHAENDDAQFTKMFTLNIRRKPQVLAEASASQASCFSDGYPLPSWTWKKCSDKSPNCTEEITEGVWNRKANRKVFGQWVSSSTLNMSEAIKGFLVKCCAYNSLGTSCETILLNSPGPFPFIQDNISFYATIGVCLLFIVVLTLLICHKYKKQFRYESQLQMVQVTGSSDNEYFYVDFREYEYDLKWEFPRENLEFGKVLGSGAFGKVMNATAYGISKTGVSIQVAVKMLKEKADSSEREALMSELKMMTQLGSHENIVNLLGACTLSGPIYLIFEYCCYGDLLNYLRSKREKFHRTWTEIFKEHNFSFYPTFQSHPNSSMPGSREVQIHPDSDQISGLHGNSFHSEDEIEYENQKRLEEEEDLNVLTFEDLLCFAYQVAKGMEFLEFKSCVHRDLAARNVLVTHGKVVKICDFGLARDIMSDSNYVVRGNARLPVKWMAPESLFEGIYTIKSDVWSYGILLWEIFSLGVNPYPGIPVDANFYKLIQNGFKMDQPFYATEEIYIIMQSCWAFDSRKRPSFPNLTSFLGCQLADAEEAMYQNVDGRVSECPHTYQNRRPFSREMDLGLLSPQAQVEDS
Target sequence in this assay (P40337 whole entry partner): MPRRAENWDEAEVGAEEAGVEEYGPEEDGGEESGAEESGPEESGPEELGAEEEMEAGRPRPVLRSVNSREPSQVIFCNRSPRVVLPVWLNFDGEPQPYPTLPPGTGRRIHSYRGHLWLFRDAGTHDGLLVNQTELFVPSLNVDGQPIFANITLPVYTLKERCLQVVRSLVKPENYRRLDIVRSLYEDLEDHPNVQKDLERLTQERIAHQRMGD
Assay [5] has as its target T2, von Hippel-Lindau disease tumor suppressor/Receptor-type tyrosine-protein kinase FLT3. The assay can be described thus: Protac activity at VHL/FLT3 in human MOLM14 cells assessed as induction of FLT3 protein degradation measured after 4 hrs by immunoblot analysis. In kind it is cell-based.
Target sequence in this assay (P36888 whole entry): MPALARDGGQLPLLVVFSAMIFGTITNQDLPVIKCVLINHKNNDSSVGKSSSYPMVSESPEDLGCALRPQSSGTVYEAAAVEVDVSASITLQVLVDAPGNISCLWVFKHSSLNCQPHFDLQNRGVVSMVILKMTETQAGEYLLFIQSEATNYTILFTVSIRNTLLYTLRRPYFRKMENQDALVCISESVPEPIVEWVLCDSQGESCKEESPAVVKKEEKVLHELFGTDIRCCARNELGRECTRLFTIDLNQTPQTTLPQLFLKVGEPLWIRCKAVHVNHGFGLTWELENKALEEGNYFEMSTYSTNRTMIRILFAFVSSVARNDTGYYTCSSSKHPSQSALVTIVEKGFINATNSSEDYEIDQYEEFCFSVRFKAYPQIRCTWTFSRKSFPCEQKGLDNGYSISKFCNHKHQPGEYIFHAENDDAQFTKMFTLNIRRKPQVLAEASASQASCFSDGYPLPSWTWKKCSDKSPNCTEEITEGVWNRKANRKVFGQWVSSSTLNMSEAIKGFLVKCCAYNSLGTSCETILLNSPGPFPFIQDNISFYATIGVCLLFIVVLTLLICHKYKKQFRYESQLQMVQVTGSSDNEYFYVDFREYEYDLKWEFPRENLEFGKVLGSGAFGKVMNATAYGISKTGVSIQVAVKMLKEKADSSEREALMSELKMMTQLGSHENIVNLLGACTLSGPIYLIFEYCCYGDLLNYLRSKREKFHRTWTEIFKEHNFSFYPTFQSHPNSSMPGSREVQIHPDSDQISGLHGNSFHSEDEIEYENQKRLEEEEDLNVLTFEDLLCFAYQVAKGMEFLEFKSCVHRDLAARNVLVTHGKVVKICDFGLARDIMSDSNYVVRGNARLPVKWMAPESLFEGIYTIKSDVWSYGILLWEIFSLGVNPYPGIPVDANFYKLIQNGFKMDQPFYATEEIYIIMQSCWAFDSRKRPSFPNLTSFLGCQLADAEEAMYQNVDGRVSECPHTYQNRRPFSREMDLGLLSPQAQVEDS
Target sequence in this assay (P40337 whole entry): as the sequence (P40337 whole entry partner) above
Assay [6] has as its target T3, von Hippel-Lindau disease tumor suppressor/Focal adhesion kinase 1 (Homo sapiens, UniProt Q05397+P40337). The assay can be described thus: Protac activity at VHL/FAK in serum deprived human PC3 cells assessed as induction of FAK protein degradation in serum deprived human PC3 cells after 24 hrs by Western blot analysis.
For assay [7], the target named is T3, von Hippel-Lindau disease tumor suppressor/Focal adhesion kinase 1. The assay can be described thus: Protac activity at VHL/FAK in serum deprived human PC3 cells assessed as induction of FAK protein degradation in serum deprived human PC3 cells at 50 nM after 24 hrs by Western blot analysis relative to control.
Assay [8] deals with Protein cereblon/Bromodomain-containing protein 4 (Homo sapiens) (UniProt O60885+Q96SW2). As to the kind of experiment: Protac activity at Cereblon/BRD4 in human MV411 cells assessed as induction of BRD4 protein degradation at 1 uM incubated for 18 hrs by immunoblot analysis relative to control. In kind it is cell-based.
For assay [9], the target named is T4, von Hippel-Lindau disease tumor suppressor/Bromodomain-containing protein 4 (Homo sapiens, UniProt O60885+P40337). The assay can be described thus: Protac activity at VHL/BRD4 in human HeLa cells assessed as induction of BRD4 protein degradation at 50 nM up to 36 hrs by Western blot analysis relative to control. In kind it is cell-based.
Assay [10] addresses T5, von Hippel-Lindau disease tumor suppressor/Steroid hormone receptor ERR1 (Homo sapiens, UniProt P11474+P40337). As to the kind of experiment: Protac activity at VHL/ERRalpha in epoxomicin pre-treated human MCF7 cells assessed as induction of ERRalpha protein degradation incubated for 8 hrs by Western blot analysis. In kind it is cell-based.
Assay [11] has as its target T5, von Hippel-Lindau disease tumor suppressor/Steroid hormone receptor ERR1. The assay can be described thus: Protac activity at VHL/ERRalpha in epoxomicin pre-treated human MCF7 cells assessed as induction of ERRalpha protein degradation at 1 uM incubated for 8 hrs by Western blot analysis relative to control. In kind it is cell-based.
The target in assay [12] is T4, von Hippel-Lindau disease tumor suppressor/Bromodomain-containing protein 4. As to the kind of experiment: Protac activity at VHL/BRD4 in human 22Rv1 cells assessed as induction of BRD4 protein degradation incubated for 16 hrs by Western blot analysis relative to control. In kind it is cell-based.
In assay [13] the target is von Hippel-Lindau disease tumor suppressor/Bromodomain-containing protein 2 (Homo sapiens, UniProt P25440+P40337). The assay can be described thus: Protac activity at VHL/BRD2 in human 22Rv1 cells assessed as induction of BRD2 protein degradation incubated for 16 hrs by Western blot analysis. In kind it is cell-based.
In assay [14] the target is T4, von Hippel-Lindau disease tumor suppressor/Bromodomain-containing protein 4. The assay can be described thus: Protac activity at VHL/BRD4 short isoform in human HeLa cells assessed as induction of BRD4 short isoform degradation incubated for 24 hrs by Western blot analysis. In kind it is cell-based.
Assay [15] shares this target. As to the kind of experiment: Protac activity at VHL/BRD4 short isoform in human HeLa cells assessed as induction of BRD4 short isoform degradation incubated for 24 hrs by Western blot analysis relative to control. In kind it is cell-based.
Assay [16] has as its target Protein cereblon/Tyrosine-protein kinase BTK (Homo sapiens, UniProt Q06187+Q96SW2). As to the kind of experiment: Protac activity at CRBN/BTK in human NAMALWA cells assessed as induction of BTK protein degradation at 100 nM incubated for 24 hrs by immunoblotting method relative to control. In kind it is cell-based.
Assay [17] has as its target T6, Protein cereblon/B-cell lymphoma 6 protein (Homo sapiens, UniProt Q96SW2+P41182). The assay can be described thus: Protac activity at CRBN/BCL6 in human SUDHL4 cells assessed as induction of BCL6 protein degradation at 1 uM after 4 hrs by Western blot analysis relative to control. In kind it is cell-based.
In assay [18] the target is T6, Protein cereblon/B-cell lymphoma 6 protein. As to the kind of experiment: Protac activity at CRBN/BCL6 in human SUDHL4 cells assessed as induction of BCL6 protein degradation after 4 hrs by Western blot analysis. In kind it is cell-based.
Assay [19] deals with T7, Estrogen receptor/E3 ubiquitin-protein ligase XIAP (Homo sapiens, UniProt P03372+P98170). The assay can be described thus: Protac activity at ERalpha/XIAP in human MCF7 cells assessed as induction of ERalpha degradation after 4 hrs by Western blot analysis. In kind it is cell-based.
The target of assay [20] is T7, Estrogen receptor/E3 ubiquitin-protein ligase XIAP. As to the kind of experiment: Protac activity at ERalpha/XIAP in human MCF7 cells assessed as induction of ERalpha degradation at 100 nM by Western blot analysis relative to control. In kind it is cell-based.
The target of assay [21] is T8, E3 ubiquitin-protein ligase XIAP/Tyrosine-protein kinase ABL1/Breakpoint cluster region protein (Homo sapiens, UniProt P00519+P98170+P11274). The assay can be described thus: Protac activity at BCR-ABL/XIAP in human K562 cells assessed as induction of ABL protein degradation after 6 hrs by Western blot analysis. In kind it is cell-based.
In assay [22] the target is T8, E3 ubiquitin-protein ligase XIAP/Tyrosine-protein kinase ABL1/Breakpoint cluster region protein. The assay can be described thus: Protac activity at BCR-ABL/XIAP in human K562 cells assessed as induction of ABL protein degradation at 100 nM after 6 hrs by Western blot analysis relative to control. In kind it is cell-based.
Assay [23] has as its target von Hippel-Lindau disease tumor suppressor/Receptor-interacting serine/threonine-protein kinase 2 (Homo sapiens) (UniProt O43353+P40337). The assay can be described thus: Protac activity at VHL/RIPK2 in human THP1 cells assessed as induction of RIPK2 protein degradation at 10 nM incubated for 16 hrs by Western blot analysis relative to control. In kind it is cell-based.

The target of assay [24] is Protein cereblon/Histone acetyltransferase KAT2A (Homo sapiens) (UniProt Q92830+Q96SW2). The assay can be described thus: Protac activity at CRBN/GCN5 in human THP1 cells assessed as induction of GCN5 protein degradation at 1 nM incubated for 18 hrs by Western blot analysis relative to control. In kind it is cell-based.
The target in assay [25] is Protein cereblon/Histone acetyltransferase KAT2B (Homo sapiens) (UniProt Q92831+Q96SW2). The assay can be described thus: Protac activity at CRBN/PCAF in human THP1 cells assessed as induction of PCAF protein degradation incubated for 18 hrs by Western blot analysis relative to control. In kind it is cell-based.

T4 sequence (P40337 whole entry, looked up, other chains not shown): as the sequence (P40337 whole entry partner) above
T1 sequence (Q00987 whole entry, looked up, other chains not shown): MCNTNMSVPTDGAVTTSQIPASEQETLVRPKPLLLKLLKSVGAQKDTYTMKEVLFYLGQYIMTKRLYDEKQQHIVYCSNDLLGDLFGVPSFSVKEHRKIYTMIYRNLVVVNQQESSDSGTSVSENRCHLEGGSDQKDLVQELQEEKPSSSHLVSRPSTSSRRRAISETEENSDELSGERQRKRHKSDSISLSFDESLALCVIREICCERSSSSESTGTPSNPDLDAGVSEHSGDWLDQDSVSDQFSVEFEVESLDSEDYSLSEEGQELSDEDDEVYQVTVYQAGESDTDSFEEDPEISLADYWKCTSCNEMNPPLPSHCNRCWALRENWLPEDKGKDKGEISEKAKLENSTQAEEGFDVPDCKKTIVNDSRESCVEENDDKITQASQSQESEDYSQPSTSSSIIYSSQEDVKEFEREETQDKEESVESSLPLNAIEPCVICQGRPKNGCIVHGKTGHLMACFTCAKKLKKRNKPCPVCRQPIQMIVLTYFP
T6 sequence (Q96SW2 whole entry, looked up, other chains not shown): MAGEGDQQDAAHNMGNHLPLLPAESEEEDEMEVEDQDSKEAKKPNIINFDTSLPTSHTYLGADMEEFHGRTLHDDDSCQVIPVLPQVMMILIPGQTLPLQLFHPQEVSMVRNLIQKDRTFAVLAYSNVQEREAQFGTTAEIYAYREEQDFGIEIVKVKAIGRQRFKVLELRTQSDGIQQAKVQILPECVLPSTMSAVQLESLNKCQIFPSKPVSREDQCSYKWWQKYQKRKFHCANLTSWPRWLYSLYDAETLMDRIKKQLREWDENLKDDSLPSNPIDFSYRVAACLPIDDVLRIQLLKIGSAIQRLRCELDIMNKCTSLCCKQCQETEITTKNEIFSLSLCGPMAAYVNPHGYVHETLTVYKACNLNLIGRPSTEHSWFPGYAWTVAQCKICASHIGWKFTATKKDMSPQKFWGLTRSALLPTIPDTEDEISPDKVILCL
Protein cereblon/Tyrosine-protein kinase BTK, sequence (Q06187 2-659 limits assumed): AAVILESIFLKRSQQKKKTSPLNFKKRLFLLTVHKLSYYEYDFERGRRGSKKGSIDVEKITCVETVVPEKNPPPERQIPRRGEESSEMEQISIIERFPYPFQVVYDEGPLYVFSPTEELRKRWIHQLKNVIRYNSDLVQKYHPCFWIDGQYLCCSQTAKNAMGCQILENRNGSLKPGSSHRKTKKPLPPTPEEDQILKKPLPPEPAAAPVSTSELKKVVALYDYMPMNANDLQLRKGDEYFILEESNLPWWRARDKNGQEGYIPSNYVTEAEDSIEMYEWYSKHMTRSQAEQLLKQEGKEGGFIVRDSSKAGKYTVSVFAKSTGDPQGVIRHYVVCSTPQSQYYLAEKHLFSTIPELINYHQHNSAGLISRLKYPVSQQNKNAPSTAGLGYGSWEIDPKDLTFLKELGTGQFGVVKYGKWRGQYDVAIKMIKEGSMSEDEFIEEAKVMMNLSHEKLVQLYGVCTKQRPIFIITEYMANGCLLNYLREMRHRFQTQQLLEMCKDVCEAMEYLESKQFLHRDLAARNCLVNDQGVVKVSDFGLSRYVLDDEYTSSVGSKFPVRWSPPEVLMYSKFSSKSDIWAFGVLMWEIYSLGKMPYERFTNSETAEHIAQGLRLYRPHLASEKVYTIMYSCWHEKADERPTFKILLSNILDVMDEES
Protein cereblon/Tyrosine-protein kinase BTK, sequence (Q96SW2 whole entry partner): as the sequence (Q96SW2 whole entry, looked up, other chains not shown) above
Protein cereblon/Histone acetyltransferase KAT2A (Homo sapiens), sequence (Q92830 2-837 limits assumed): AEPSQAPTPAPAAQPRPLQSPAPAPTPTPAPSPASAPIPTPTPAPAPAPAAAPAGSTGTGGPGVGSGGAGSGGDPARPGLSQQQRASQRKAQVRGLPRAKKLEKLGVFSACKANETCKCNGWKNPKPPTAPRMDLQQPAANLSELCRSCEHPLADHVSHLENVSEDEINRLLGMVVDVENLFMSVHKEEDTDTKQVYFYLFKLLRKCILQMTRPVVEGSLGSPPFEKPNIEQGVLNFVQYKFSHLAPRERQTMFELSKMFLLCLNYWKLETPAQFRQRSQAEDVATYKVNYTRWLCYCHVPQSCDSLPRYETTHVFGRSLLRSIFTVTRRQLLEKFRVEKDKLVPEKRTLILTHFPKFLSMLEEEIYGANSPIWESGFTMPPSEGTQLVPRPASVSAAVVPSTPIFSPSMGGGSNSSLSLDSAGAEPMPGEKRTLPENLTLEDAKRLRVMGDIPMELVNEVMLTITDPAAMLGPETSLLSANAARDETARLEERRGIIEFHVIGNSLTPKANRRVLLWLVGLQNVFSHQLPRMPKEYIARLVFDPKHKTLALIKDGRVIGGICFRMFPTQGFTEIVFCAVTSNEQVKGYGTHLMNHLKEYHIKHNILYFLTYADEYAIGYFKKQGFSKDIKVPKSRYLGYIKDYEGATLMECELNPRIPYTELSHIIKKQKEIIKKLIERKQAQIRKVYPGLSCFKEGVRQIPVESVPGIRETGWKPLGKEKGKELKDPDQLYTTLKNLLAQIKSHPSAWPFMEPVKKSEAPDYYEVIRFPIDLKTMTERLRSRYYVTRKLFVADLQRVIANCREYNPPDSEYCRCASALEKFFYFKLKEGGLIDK
Protein cereblon/Histone acetyltransferase KAT2A (Homo sapiens), sequence (Q96SW2 whole entry partner): as the sequence (Q96SW2 whole entry, looked up, other chains not shown) above
Protein cereblon/Bromodomain-containing protein 4 (Homo sapiens), sequence (Q96SW2 whole entry, looked up, other chains not shown): as above

The Emax is the maximal effect, on the per cent scale that the assay sets. For the compound `O=C1CCC(N2C(=O)c3cccc(OCCCCCOc4ccc(CC(=O)Nc5cc(C6CCC6)[nH]n5)cc4)c3C2=O)C(=O)N1` (stereo not given), in assay [1], the Emax is greater than 65%.
A word on the DC50: it is the midpoint of the concentration-degradation curve. In the case of `COc1cc(C(=O)NCCOCCOCCOCCNC(=O)C[C@@H]2N=C(c3ccc(Cl)cc3)c3c(sc(C)c3C)-n3c(C)nnc32)ccc1NC(=O)[C@@H]1N[C@@H](CC(C)(C)C)[C@](C#N)(c2ccc(Cl)cc2F)[C@H]1c1cccc(Cl)c1F`, the Emax in assay [2] was 98%. The DC50 in assay [3] stood at 32 nM.
`Cc1ncsc1-c1ccc(CNC(=O)[C@@H]2C[C@@H](O)CN2C(=O)[C@@H](NC(=O)CCOCCOCCOc2ccc3c(c2)sc2nc(-c4ccc(NC(=O)Nc5cc(C(C)(C)C)on5)cc4)cn23)C(C)(C)C)cc1`: the Emax in assay [4] is greater than 90%. Also, the DC50 in [5] is less than 5 nM.
For `Cc1ncsc1-c1ccc(CNC(=O)[C@@H]2C[C@@H](O)CN2C(=O)[C@@H](NC(=O)CCOCCOc2ccc(Nc3ncc(C(F)(F)F)c(NCc4cccc(N(C)S(C)(=O)=O)c4)n3)cc2)C(C)(C)C)cc1`, in assay [6], the half-maximal degradation concentration (DC50) is 3 nM. For the same compound, the Emax in [7] is greater than 99%.
Regarding `Cc1sc2c(c1C)C(c1ccc(Cl)cc1)=N[C@@H](CC(=O)NCCCCNC(=O)COc1cccc3c1C(=O)N(C1CCC(=O)NC1=O)C3=O)c1nnc(C)n1-2` (stereo not given in full), the Emax in assay [8] is 95%.
With `Cc1ncsc1-c1ccc(CNC(=O)[C@@H]2C[C@@H](O)CN2C(=O)[C@@H](NC(=O)COCCOCCOCCNC(=O)C[C@@H]2N=C(c3ccc(Cl)cc3)c3c(sc(C)c3C)-n3c(C)nnc32)C(C)(C)C)cc1`, the Emax in assay [9] is greater than 96%.
With `COc1cc(/C=C2\SC(=O)N(CCOCCC(=O)N[C@H](C(=O)N3C[C@H](O)C[C@H]3C(=O)NCc3ccc(-c4scnc4C)cc3)C(C)(C)C)C2=O)ccc1Oc1ccc(C#N)cc1C(F)(F)F`, the DC50 in assay [10] amounted to 100 nM. Besides, the Emax in assay [11] was determined as 86%.
`Cc1ncsc1-c1ccc([C@H](C)NC(=O)[C@@H]2C[C@@H](O)CN2C(=O)[C@@H](NC(=O)COCCCOCCNC(=O)C[C@@H]2N=C(c3ccc(Cl)cc3)c3c(sc(C)c3C)-n3c(C)nnc32)C(C)(C)C)cc1`: the Emax in assay [12] was greater than 99%. In [13], the DC50 was less than 5 nM.
Turning to `CC(=O)N[C@H](C(=O)N1C[C@H](O)C[C@H]1C(=O)NCc1ccc(-c2scnc2C)cc1)C(C)(C)SCCCCCCNC(=O)C[C@@H]1N=C(c2ccc(Cl)cc2)c2c(sc(C)c2C)-n2c(C)nnc21`, in [14], the DC50 is 10 to 100 nM. Besides, the Emax in assay [15] is greater than 90%.
Consider `Nc1ncnc2c1c(-c1ccc(Oc3ccccc3)cc1)nn2C1CCN(CCOCCOCC(=O)Nc2ccc3c(c2)C(=O)N(C2CCC(=O)NC2=O)C3=O)CC1` (stereo not given), for which the Emax in assay [16] is greater than 99%.
As to `CN1C(=O)CCc2cc3cc(c21)OCCOC[C@H]1CN(C(=O)CCC(=O)NCCCOCCOCCOCCOCCOc2cccc4c2C(=O)N(C2CCC(=O)NC2=O)C4=O)CCN1c1ncc(Cl)c(n1)N3` (stereo not given in full), in assay [17], the Emax was 84%. In addition, the DC50 in assay [18] is less than 1000 nM.
For `CC/C(=C(\c1ccc(O)cc1)c1ccc(OCCN(C)C(=O)COCCOCCOCCOc2cccc(O[C@H]3C[C@@H](C(=O)N[C@@H]4CCCc5ccccc54)N(C(=O)[C@@H](NC(=O)[C@H](C)NC)C4CCCCC4)C3)c2)cc1)c1ccccc1`, in [19], the DC50 was less than 3 nM. The Emax in assay [20] turned out to be 80%.
With `CN[C@@H](C)C(=O)N[C@H](C(=O)N1CCC[C@H]1c1nc(C(=O)c2cccc(OCCOCCOCCOCC(=O)N3CCN(c4cc(Nc5ncc(C(=O)Nc6c(C)cccc6Cl)s5)nc(C)n4)CC3)c2)cs1)C1CCCCC1`, the DC50 in [21] is 3 to 10 nM. Besides, the Emax in [22] was greater than 90%.
For `Cc1ncsc1-c1ccc(CNC(=O)[C@@H]2C[C@@H](O)CN2C(=O)[C@@H](NC(=O)COCCOCCOCCOCCOc2cc3nccc(Nc4ccc5scnc5c4)c3cc2S(=O)(=O)C(C)(C)C)C(C)(C)C)cc1`, the Emax in [23] is greater than 95%.
For the compound `CN1C[C@H](Nc2cnn(C)c(=O)c2Br)C[C@H](c2ccc(C(=O)N(C)CCCN(C)c3ccc(CCCOc4cccc5c4C(=O)N(C4CCC(=O)NC4=O)C5=O)cc3)cc2)C1` (stereo not given in full), the Emax in [24] came to 81%; in [25] it was 97%.

The values above are taken from ChEMBL document CHEMBL4387721, “Proteolysis targeting chimeras (PROTACs) in 'beyond rule-of-five' chemical space: Recent progress and future challenges” (Bioorg Med Chem Lett, 2019).
